Laboratory results from patent US11535597B2, “Photoreactive ligands and uses thereof” (The Scripps Research Institute, priority 2017, dated 2022).
Entries after “also recorded” stand apart in the source; their conditions may differ.

Tests used:
[1] = target: T1, ZADH2 (Homo sapiens, UniProt Q8N4Q0); test: MS-based (SILAC) competition of FFF probe 8 labeling of ZADH2 in HEK293T cells; type: binding; conditions: competition with FFF probe 8 (20 μM)
T1 construct: endogenous in cells; host or cells: HEK293T
T1 sequence (Q8N4Q0 1-377): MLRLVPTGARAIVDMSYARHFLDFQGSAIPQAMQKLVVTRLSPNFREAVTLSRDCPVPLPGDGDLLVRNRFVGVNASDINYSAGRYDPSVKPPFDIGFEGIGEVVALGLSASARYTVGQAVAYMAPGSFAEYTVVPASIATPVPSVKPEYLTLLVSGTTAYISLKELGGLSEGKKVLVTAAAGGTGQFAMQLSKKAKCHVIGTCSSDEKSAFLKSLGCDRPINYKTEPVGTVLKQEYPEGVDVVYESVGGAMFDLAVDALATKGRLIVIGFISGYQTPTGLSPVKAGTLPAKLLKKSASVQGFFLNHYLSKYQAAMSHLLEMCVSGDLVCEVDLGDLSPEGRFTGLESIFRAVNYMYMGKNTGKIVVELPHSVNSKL
Method: For gel-based experiments, cells were grown in 6-well plates to ˜90% confluence at the time of treatment. Cells were carefully washed with Dulbecco's phosphate buffered saline (DPBS) and replenished with fresh serum-free media containing indicated FFF probe, and, if applicable, competitors or DMSO vehicle (1 mL). Following incubation at 37° C. for 30 min, cells were directly exposed to 365 nm light for 10 min. For no UV experiments, cells were incubated at 4° C. for 10 min under ambient light. For MS-based experiments, cell labeling was performed in a similar manner as described above. Modifications to this protocol included using isotopically ‘light’ and ‘heavy’ SILAC cells that were grown to near complete confluence prior to treatment in 10 cm plates. In probe-versus-control probe and probe-versus-probe experiments, isotopically light cells were treated with indicated fragment probe, while the heavy cells were treated with control probe (1), or additional FFF probe to be compared, at indicated concentrations. […]
Cells pellets were lysed in cold DPBS (100-500 µL) using a Branson Sonifier probe sonicator (10 pulses, 30% duty cycle, output setting=4). […] Protein concentration was determined using the DC Protein Assay (Bio-Rad) and absorbance read using a Tecan, Infinite F500 plate reader following manufacturer's instructions. […]

[2] = target: T2, PPARγ (Homo sapiens, UniProt P37231); test: GAL4-PPARγ luciferase reporter assay with empty control vector in HEK293T cells; type: cell-based; conditions: GAL4-PPARγ luciferase reporter and empty control vector
T2 construct: expressed in transfected cells; host or cells: HEK293T
T2 sequence (P37231 238-503 limits assumed): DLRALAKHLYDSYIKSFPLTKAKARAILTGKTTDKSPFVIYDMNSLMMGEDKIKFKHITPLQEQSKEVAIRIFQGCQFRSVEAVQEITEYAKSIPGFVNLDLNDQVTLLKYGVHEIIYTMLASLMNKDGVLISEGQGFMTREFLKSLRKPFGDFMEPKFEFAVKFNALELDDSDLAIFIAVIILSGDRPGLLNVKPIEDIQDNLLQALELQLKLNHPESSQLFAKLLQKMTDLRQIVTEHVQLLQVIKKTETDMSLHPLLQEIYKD
Method: HEK293T cells were transiently co-transfected using Polyethylenimine (Sigma) with a UAS-Luciferase reporter and a vector expressing the heterologous GAL4 DNA binding domain (DBD) or a GAL4 DNA binding domain::PPARγ ligand binding domain (LBD) chimeric protein, and full-length PTGR2. 24 hr after transfection, cells were treated either with vehicle (DMSO), 15k-PGE2 (20 μM), or fragment compounds. Rosiglitazone (2 μM), a synthetic PPARγ ligand, was used as control. 16 hr after incubation, cells were lysed in Cell Culture Lysis Reagent (Promega) and luciferase activity measured using the Luciferase Assay System (Promega).

**Q.** Which results are given for `COc1ccccc1N1CCN(C(=O)Cc2ccccc2)CC1` [Compound 22, 1-(4-(2-Methoxyphenyl)piperazin-1-yl)-2-phenylethan-1-one]?
**A.** cross-reactivity with ZADH2 [1]: did not cross-react; direct modulation of PPARγ transcriptional activity [2]: do not directly induce; also recorded: Neither 22 nor 23 directly modulated
